According to ChEMBL document CHEMBL1201862, “PubChem BioAssay data set” (2004):
Calls of active or inactive are those of the source.

What was measured:
[1] = biological target: Dual specificity protein kinase CLK1 (Homo sapiens, UniProt P49759); experiment: inhibition of human CLK1 activity – biochemical, cherry-picked samples, selectivity assay for Dyrk1A inhibitor project, dose response (AID 588811)
[2] = test system: H4; experiment: Luminescence Cell-Based Dose Response HTS to Identify Activators of 5'UTR Stem-Loop Driven Prion Protein mRNA Translation in H4 Neuroglioblastoma Cells. [Related pubchem assays: 1829 (Project Summary), 1814 (Primary HTS)]; format: functional; conditions: Homo sapiens
[3] = Luminescence Cell-Based Dose Confirmation HTS to Identify Activators of 5'UTR Stem-Loop Driven Alpha-Synuclein mRNA Translation in H4 Neuroglioblastoma Cells. [Related pubchem assays: 1829 (Project Summary), 1814 (Primary HTS)]; format: functional
[4] = Luminescence Cell-Based Dose Response HTS to Identify Activators of Luciferase Translation or Activity in H4 […] Cells. [Related pubchem assays: 1829 (Project Summary), 1814 (Primary HTS)]; format: functional
[5] = viability loss in HepG2 hepatoma cells – cell-based, ATP luminescence, cherry-pick, activator set 2, cytotoxicity control, dose response (AID 1053143); format: functional
[6] = test system: HEK293; experiment: cells; format: functional, cell-based; conditions: Homo sapiens
[7] = cells; format: functional, cell-based
[8] = cells; format: functional, cell-based; remark: listed apart in the source
[9] = biological target: Nuclear receptor subfamily 0 group B member 1 (Homo sapiens, UniProt P51843); experiment: Luminescence-based cell-based high throughput dose response assay for inhibitors of the orphan nuclear receptor subfamily 0, group B, member 1 (DAX1; NR0B1). [Related pubchem assays (depositor defined):AID504766, AID504790]; format: functional
Nuclear receptor subfamily 0 group B member 1, sequence (P51843 whole entry): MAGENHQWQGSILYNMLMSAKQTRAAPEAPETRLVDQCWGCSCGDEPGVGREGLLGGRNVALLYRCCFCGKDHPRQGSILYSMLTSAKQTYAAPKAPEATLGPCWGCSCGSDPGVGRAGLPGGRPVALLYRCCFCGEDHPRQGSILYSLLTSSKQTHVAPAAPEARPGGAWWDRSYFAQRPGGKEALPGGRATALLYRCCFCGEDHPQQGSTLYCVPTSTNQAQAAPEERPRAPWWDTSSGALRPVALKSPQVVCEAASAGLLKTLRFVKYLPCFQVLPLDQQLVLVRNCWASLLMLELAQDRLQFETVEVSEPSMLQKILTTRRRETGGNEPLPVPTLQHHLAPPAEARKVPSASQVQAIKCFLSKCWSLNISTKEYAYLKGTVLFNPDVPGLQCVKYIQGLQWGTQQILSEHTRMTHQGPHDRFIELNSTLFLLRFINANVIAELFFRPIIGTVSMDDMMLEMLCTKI

[10] = biological target: Acyl-homoserine lactone acylase PvdQ (Pseudomonas aeruginosa (strain LESB58), UniProt Q9I194); experiment: PvdQ acylase enzyme activity blockers – biochemical, fluorescence, plate reader and imaging, cherry-picks, dose response (AID 493231)
Acyl-homoserine lactone acylase PvdQ, sequence (Q9I194 24-193 limits assumed): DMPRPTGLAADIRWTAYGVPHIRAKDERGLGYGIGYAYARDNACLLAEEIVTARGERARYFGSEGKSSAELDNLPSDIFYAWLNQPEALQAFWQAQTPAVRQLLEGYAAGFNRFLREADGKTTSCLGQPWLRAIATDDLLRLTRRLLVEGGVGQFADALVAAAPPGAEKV
Acyl-homoserine lactone acylase PvdQ, sequence (Q9I194 217-762 limits assumed): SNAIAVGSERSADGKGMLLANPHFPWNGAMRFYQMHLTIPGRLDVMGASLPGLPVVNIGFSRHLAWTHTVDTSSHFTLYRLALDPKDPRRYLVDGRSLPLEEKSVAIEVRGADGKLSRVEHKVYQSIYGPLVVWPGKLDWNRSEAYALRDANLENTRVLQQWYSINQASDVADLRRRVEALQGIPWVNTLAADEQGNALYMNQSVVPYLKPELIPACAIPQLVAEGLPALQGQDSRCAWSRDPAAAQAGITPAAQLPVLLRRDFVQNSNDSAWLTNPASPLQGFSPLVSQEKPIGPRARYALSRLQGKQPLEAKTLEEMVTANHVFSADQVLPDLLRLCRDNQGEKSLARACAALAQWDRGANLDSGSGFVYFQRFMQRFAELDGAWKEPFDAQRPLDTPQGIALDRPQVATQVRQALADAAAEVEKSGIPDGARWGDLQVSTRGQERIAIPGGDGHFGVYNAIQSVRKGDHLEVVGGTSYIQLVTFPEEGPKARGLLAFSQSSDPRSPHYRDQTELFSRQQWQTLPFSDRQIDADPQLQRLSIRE

[11] = test system: HeLa; experiment: toxicity to human HeLa cells – cell-based, 48 h, plate reader, cherry-picks, cytotoxicity control, dose response (AID 504942); format: functional
[12] = biological target: Potassium voltage-gated channel subfamily KQT member 2 (Rattus norvegicus, UniProt O88943); experiment: Mode of action assay-Dose response assay for compounds that activate KCNQ2 potassium channels on automated patch clamp. [Related pubchem assays (depositor defined):AID2239, AID2258, AID2287, AID493113]; format: functional
Potassium voltage-gated channel subfamily KQT member 2, sequence (O88943 whole entry): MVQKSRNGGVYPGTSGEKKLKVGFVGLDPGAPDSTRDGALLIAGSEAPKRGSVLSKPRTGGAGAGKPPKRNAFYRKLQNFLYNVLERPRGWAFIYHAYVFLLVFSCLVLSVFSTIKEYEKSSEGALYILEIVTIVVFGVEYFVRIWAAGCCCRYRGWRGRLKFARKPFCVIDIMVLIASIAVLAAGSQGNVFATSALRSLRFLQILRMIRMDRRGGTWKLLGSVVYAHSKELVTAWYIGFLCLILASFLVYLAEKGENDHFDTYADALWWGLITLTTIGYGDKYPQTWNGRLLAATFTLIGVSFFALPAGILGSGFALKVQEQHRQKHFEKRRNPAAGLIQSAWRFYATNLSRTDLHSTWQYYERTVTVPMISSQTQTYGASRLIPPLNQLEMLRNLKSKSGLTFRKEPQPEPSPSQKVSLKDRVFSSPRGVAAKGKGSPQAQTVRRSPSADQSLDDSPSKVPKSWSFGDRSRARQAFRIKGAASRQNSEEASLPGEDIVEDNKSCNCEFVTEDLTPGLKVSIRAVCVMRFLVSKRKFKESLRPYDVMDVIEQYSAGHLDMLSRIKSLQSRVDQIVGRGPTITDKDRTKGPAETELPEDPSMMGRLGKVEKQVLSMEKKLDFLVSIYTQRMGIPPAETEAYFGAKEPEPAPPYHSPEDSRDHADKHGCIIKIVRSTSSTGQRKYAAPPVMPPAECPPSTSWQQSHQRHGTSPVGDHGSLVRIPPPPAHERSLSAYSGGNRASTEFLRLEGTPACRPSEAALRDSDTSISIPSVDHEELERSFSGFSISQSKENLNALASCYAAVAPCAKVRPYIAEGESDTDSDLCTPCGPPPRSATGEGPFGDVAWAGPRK

[13] = biological target: T1, Potassium voltage-gated channel subfamily KQT member 4 (Homo sapiens, UniProt P56696); experiment: activation of KCNQ4 potassium current – automated patch clamp, CHO cells, selectivity assay for KCNQ2 activator project, dose response (AID 493043); format: functional, cell-based
T1 sequence (P56696 whole entry): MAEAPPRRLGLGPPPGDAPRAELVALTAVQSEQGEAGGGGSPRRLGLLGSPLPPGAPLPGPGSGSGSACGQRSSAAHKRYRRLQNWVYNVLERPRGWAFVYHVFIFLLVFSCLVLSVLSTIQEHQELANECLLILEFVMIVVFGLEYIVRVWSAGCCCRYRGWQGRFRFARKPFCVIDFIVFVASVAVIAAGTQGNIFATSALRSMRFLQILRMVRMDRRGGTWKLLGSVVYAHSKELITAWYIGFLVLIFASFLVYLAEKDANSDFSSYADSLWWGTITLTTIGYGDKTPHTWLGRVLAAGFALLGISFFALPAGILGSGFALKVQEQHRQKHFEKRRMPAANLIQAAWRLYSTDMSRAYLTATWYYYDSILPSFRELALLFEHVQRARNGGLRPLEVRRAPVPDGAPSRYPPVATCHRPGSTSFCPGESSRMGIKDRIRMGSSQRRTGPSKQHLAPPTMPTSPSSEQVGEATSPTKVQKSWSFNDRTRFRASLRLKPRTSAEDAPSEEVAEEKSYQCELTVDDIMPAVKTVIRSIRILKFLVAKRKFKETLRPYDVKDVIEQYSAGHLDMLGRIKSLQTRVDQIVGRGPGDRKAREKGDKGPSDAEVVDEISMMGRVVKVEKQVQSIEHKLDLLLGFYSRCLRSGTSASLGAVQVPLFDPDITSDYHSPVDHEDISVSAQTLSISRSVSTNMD

[14] = biological target: Potassium voltage-gated channel subfamily KQT member 2/member 3 (Rattus norvegicus, UniProt O88943+O88944); experiment: Mode of action assay-Dose response assay for KCNQ2 activators in the KCNQ2/KCNQ3 co-expressing cells on automated patch clamp. [Related pubchem assays (depositor defined):AID2239, AID2258, AID2287]; format: functional
Potassium voltage-gated channel subfamily KQT member 2/member 3, sequence (O88943 whole entry): as the sequence (O88943 whole entry) above
Potassium voltage-gated channel subfamily KQT member 2/member 3, sequence (O88944 whole entry): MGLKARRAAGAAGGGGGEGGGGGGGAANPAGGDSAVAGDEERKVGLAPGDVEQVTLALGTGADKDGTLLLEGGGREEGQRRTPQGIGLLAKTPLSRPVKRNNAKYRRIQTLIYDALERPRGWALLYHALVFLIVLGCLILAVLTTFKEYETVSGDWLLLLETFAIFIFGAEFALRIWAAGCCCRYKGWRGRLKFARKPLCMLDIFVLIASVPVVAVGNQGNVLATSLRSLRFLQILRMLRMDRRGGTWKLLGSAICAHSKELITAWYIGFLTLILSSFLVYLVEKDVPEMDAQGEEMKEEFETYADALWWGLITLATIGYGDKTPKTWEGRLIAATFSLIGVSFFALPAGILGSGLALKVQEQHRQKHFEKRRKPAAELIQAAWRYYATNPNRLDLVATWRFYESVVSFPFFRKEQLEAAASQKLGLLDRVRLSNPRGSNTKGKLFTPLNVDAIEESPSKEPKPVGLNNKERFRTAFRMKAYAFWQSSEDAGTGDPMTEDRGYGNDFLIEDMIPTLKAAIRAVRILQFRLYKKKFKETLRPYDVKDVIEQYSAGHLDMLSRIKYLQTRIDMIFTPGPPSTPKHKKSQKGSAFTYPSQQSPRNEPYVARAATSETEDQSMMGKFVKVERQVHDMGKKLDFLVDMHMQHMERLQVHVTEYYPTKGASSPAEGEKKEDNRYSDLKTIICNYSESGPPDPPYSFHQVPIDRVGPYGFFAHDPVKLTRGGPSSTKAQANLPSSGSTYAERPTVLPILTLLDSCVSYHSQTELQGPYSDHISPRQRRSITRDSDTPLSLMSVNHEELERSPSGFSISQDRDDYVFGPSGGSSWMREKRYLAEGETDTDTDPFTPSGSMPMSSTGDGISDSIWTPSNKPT

[15] = biological target: T1, Potassium voltage-gated channel subfamily KQT member 4; experiment: KCNQ4 thallium flux concentration-response – KCNQ4-expressing cells, selectivity assay for KCNQ2 activator project, dose response (AID 504416); format: functional, cell-based

Dual specificity protein kinase CLK1, sequence (P49759 whole entry): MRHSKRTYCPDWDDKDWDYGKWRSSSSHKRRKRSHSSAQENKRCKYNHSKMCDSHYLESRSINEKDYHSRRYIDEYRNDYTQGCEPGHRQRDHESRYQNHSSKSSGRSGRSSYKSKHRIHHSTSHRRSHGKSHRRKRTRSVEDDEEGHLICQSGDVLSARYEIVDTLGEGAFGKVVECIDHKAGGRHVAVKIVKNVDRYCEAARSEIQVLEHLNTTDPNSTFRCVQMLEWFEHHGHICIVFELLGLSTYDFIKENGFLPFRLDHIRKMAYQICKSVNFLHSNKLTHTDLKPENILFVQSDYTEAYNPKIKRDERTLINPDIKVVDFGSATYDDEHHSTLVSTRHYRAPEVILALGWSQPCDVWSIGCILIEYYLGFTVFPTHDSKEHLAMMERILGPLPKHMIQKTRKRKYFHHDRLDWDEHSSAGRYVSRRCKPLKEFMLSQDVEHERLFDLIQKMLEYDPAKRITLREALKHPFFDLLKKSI

For `CN(C)S(=O)(=O)c1ccc(Cl)c(C(=O)Nc2cccc3ncccc23)c1`, which AC50 [1] is on record?
The AC50 was 1.84 µM (active).

For `O=C(Nc1ccccc1O)c1ccc(NC(=O)C2CC2)cc1`, which EC50 [2] is on record?
Its EC50 is 12.3 µM (active).

And the EC50 [3]?
The EC50 was 10.5 µM (active).

And the EC50 [4]?
Its EC50 is 17.3 µM (active).

What about the AC50 [5] of the same compound?
Its AC50 is 18.8 µM (active).

And the IC50 [6]?
Its IC50 is 1.91 µM (active).

And the EC50 [7]?
The EC50 was 51.3 µM (active).

What about the EC50 [8] of the same compound?
Its EC50 is 11.2 µM (active).

What about the IC50 [9] of the same compound?
The IC50 was > 67.6 µM (inactive).

With `O=C(Nc1ncc([N+](=O)[O-])s1)c1cccc([N+](=O)[O-])c1` as the compound, how does the AC50 [10] read?
Its AC50 is 10.3 µM (active).

What about the AC50 [11] of the same compound?
The AC50 was 23.1 µM (active).

Which results are given for `CCCCC(=O)Nc1c(C)cc(C)cc1Cl`?
EC50 [12]: 2.14 µM (active); EC50 [13]: 3.15 µM (active); EC50 [14]: 2.69 µM (active); EC50 [15]: 18.7 µM (active)
